Source: ChEMBL document CHEMBL4004849, “Tetrazolylmethyl quinolines: Design, docking studies, synthesis, anticancer and antifungal analyses” (2017)
The source made the active and inactive calls.

Key:
Format in all cases: functional
CAKI-1 = assay: Growth inhibition of human Caki1 cells at 10^-5 M incubated for 48 hrs by sulforhodamine B assay relative to control
UACC-62 = assay: Growth inhibition of human UACC62 cells at 10^-5 M incubated for 48 hrs by sulforhodamine B assay relative to control
UO-31 = assay: Growth inhibition of human UO31 cells at 10^-5 M incubated for 48 hrs by sulforhodamine B assay relative to control
OVCAR-5 = assay: Growth inhibition of human OVCAR5 cells at 10^-5 M incubated for 48 hrs by sulforhodamine B assay relative to control
BT-549 = assay: Growth inhibition of human BT549 cells at 10^-5 M incubated for 48 hrs by sulforhodamine B assay relative to control
LOX IMVI = assay: Growth inhibition of human LOXIMVI cells at 10^-5 M incubated for 48 hrs by sulforhodamine B assay relative to control
HCC 2998 = assay: Growth inhibition of human HCC2998 cells at 10^-5 M incubated for 48 hrs by sulforhodamine B assay relative to control
SF-268 = assay: Growth inhibition of human SF268 cells at 10^-5 M incubated for 48 hrs by sulforhodamine B assay relative to control
SK-OV-3 = assay: Growth inhibition of human SKOV3 cells at 10^-5 M incubated for 48 hrs by sulforhodamine B assay relative to control
NCI-H460 = assay: Growth inhibition of human NCI-H460 cells at 10^-5 M incubated for 48 hrs by sulforhodamine B assay relative to control
786-0 = assay: Growth inhibition of human 786-0 cells at 10^-5 M incubated for 48 hrs by sulforhodamine B assay relative to control
TK-10 = assay: Growth inhibition of human TK10 cells at 10^-5 M incubated for 48 hrs by sulforhodamine B assay relative to control
K562 = assay: Growth inhibition of human K562 cells at 10^-5 M incubated for 48 hrs by sulforhodamine B assay relative to control
HL-60(TB) = assay: Growth inhibition of human HL-60(TB) cells at 10^-5 M incubated for 48 hrs by sulforhodamine B assay relative to control
OVCAR-3 = assay: Growth inhibition of human OVCAR3 cells at 10^-5 M incubated for 48 hrs by sulforhodamine B assay relative to control
OVCAR-8 = assay: Growth inhibition of human OVCAR8 cells at 10^-5 M incubated for 48 hrs by sulforhodamine B assay relative to control
MDA-MB-468 = assay: Growth inhibition of human MDA-MB-468 cells at 10^-5 M incubated for 48 hrs by sulforhodamine B assay relative to control
Aspergillus fumigatus [1] = assay: Antifungal activity against Aspergillus fumigatus at 100 ug/ml by disc diffusion method; conditions: read-out: IZ
Hs-578T = assay: Growth inhibition of human Hs 578T cells at 10^-5 M incubated for 48 hrs by sulforhodamine B assay relative to control
M14 = assay: Growth inhibition of human M14 cells at 10^-5 M incubated for 48 hrs by sulforhodamine B assay relative to control
NCI-H23 = assay: Growth inhibition of human NCI-H23 cells at 10^-5 M incubated for 48 hrs by sulforhodamine B assay relative to control
U-251 = assay: Growth inhibition of human U251 cells at 10^-5 M incubated for 48 hrs by sulforhodamine B assay relative to control
T47D = assay: Growth inhibition of human T47D cells at 10^-5 M incubated for 48 hrs by sulforhodamine B assay relative to control
SR = assay: Growth inhibition of human SR cells at 10^-5 M incubated for 48 hrs by sulforhodamine B assay relative to control
Malme-3M = assay: Growth inhibition of human MALME-3M cells at 10^-5 M incubated for 48 hrs by sulforhodamine B assay relative to control
MDA-MB-231 = assay: Growth inhibition of human MDA-MB-231/ATCC cells at 10^-5 M incubated for 48 hrs by sulforhodamine B assay relative to control
Candida albicans [2] = assay: Antifungal activity against Candida albicans after 24 hrs by serial dilution method
IGROV-1 = assay: Growth inhibition of human IGROV1 cells at 10^-5 M incubated for 48 hrs by sulforhodamine B assay relative to control
MDA-MB-435 = assay: Growth inhibition of human MDA-MB-435 cells at 10^-5 M incubated for 48 hrs by sulforhodamine B assay relative to control
SK-MEL-28 = assay: Growth inhibition of human SK-MEL-28 cells at 10^-5 M incubated for 48 hrs by sulforhodamine B assay relative to control
NCI-H226 = assay: Growth inhibition of human NCI-H226 cells at 10^-5 M incubated for 48 hrs by sulforhodamine B assay relative to control
Candida albicans [3] = assay: Antifungal activity against Candida albicans at 100 ug/ml by disc diffusion method; conditions: read-out: IZ
HCT-116 = assay: Growth inhibition of human HCT116 cells at 10^-5 M incubated for 48 hrs by sulforhodamine B assay relative to control
SF-295 = assay: Growth inhibition of human SF295 cells at 10^-5 M incubated for 48 hrs by sulforhodamine B assay relative to control
UACC-257 = assay: Growth inhibition of human UACC257 cells at 10^-5 M incubated for 48 hrs by sulforhodamine B assay relative to control
SNB-19 = assay: Growth inhibition of human SNB19 cells at 10^-5 M incubated for 48 hrs by sulforhodamine B assay relative to control
A549 = assay: Growth inhibition of human A549/ATCC cells at 10^-5 M incubated for 48 hrs by sulforhodamine B assay relative to control
SNB-75 = assay: Growth inhibition of human SNB75 cells at 10^-5 M incubated for 48 hrs by sulforhodamine B assay relative to control
EKVX = assay: Growth inhibition of human EKVX cells at 10^-5 M incubated for 48 hrs by sulforhodamine B assay relative to control
SF-539 = assay: Growth inhibition of human SF539 cells at 10^-5 M incubated for 48 hrs by sulforhodamine B assay relative to control
SN12C = assay: Growth inhibition of human SN12C cells at 10^-5 M incubated for 48 hrs by sulforhodamine B assay relative to control
Aspergillus fumigatus [4] = assay: Antifungal activity against Aspergillus fumigatus after 24 hrs by serial dilution method
ACHN = assay: Growth inhibition of human ACHN cells at 10^-5 M incubated for 48 hrs by sulforhodamine B assay relative to control
MOLT-4 = assay: Growth inhibition of human MOLT4 cells at 10^-5 M incubated for 48 hrs by sulforhodamine B assay relative to control
SW-620 = assay: Growth inhibition of human SW620 cells at 10^-5 M incubated for 48 hrs by sulforhodamine B assay relative to control

COc1ccc2nc(Cl)c(Cn3nnnc3Cc3ccccc3)cc2c1
20 mm: zone of inhibition at 100 µg/mL (Aspergillus fumigatus [1])
active: growth inhibition (GI) (CAKI-1) | growth inhibition (GI) (UACC-62) | growth inhibition (GI) (UO-31) | growth inhibition (GI) (OVCAR-5) | growth inhibition (GI) (BT-549) | growth inhibition (GI) (LOX IMVI) | growth inhibition (GI) (HCC 2998) | growth inhibition (GI) (SF-268) | growth inhibition (GI) (SK-OV-3) | growth inhibition (GI) (NCI-H460) | growth inhibition (GI) (786-0) | growth inhibition (GI) (TK-10) | growth inhibition (GI) (K562) | growth inhibition (GI) (HL-60(TB)) | growth inhibition (GI) (OVCAR-3) | growth inhibition (GI) (OVCAR-8) | growth inhibition (GI) (MDA-MB-468) | growth inhibition (GI) (Hs-578T) | growth inhibition (GI) (M14) | growth inhibition (GI) (NCI-H23) | growth inhibition (GI) (U-251) | growth inhibition (GI) (T47D) | growth inhibition (GI) (SR) | growth inhibition (GI) (Malme-3M) | growth inhibition (GI) (MDA-MB-231) | growth inhibition (GI) (IGROV-1) | growth inhibition (GI) (MDA-MB-435) | growth inhibition (GI) (SK-MEL-28) | growth inhibition (GI) (NCI-H226) | growth inhibition (GI) (HCT-116) | growth inhibition (GI) (SF-295) | growth inhibition (GI) (UACC-257) | growth inhibition (GI) (SNB-19) | growth inhibition (GI) (A549) | growth inhibition (GI) (SNB-75) | growth inhibition (GI) (EKVX) | growth inhibition (GI) (SF-539) | growth inhibition (GI) (SN12C) | growth inhibition (GI) (ACHN) | growth inhibition (GI) (MOLT-4) | growth inhibition (GI) (SW-620)
25 µg/mL: MIC (Candida albicans [2]) | MIC (Aspergillus fumigatus [4])
15 mm: zone of inhibition at 100 µg/mL (Candida albicans [3])

Fc1ccc2nc(Cl)c(Cn3nnc(CSc4ccccc4)n3)cc2c1
2.5 µg/mL: MIC (Aspergillus fumigatus [4])
13 mm: zone of inhibition at 100 µg/mL (Aspergillus fumigatus [1])
18 mm: zone of inhibition at 100 µg/mL (Candida albicans [3])
active: growth inhibition (GI) (CAKI-1) | growth inhibition (GI) (UACC-62) | growth inhibition (GI) (UO-31) | growth inhibition (GI) (OVCAR-5) | growth inhibition (GI) (BT-549) | growth inhibition (GI) (LOX IMVI) | growth inhibition (GI) (HCC 2998) | growth inhibition (GI) (SF-268) | growth inhibition (GI) (SK-OV-3) | growth inhibition (GI) (NCI-H460) | growth inhibition (GI) (786-0) | growth inhibition (GI) (TK-10) | growth inhibition (GI) (K562) | growth inhibition (GI) (HL-60(TB)) | growth inhibition (GI) (OVCAR-3) | growth inhibition (GI) (OVCAR-8) | growth inhibition (GI) (MDA-MB-468) | growth inhibition (GI) (Hs-578T) | growth inhibition (GI) (M14) | growth inhibition (GI) (NCI-H23) | growth inhibition (GI) (U-251) | growth inhibition (GI) (T47D) | growth inhibition (GI) (SR) | growth inhibition (GI) (Malme-3M) | growth inhibition (GI) (MDA-MB-231) | growth inhibition (GI) (IGROV-1) | growth inhibition (GI) (MDA-MB-435) | growth inhibition (GI) (SK-MEL-28) | growth inhibition (GI) (NCI-H226) | growth inhibition (GI) (HCT-116) | growth inhibition (GI) (SF-295) | growth inhibition (GI) (UACC-257) | growth inhibition (GI) (SNB-19) | growth inhibition (GI) (A549) | growth inhibition (GI) (SNB-75) | growth inhibition (GI) (EKVX) | growth inhibition (GI) (SF-539) | growth inhibition (GI) (SN12C) | growth inhibition (GI) (ACHN) | growth inhibition (GI) (MOLT-4) | growth inhibition (GI) (SW-620)
50 µg/mL: MIC (Candida albicans [2])

Cc1ccc2nc(Cl)c(Cn3nnc(CSc4ccccc4)n3)cc2c1
10 µg/mL: MIC (Candida albicans [2])
18 mm: zone of inhibition at 100 µg/mL (Aspergillus fumigatus [1])
active: growth inhibition (GI) (CAKI-1) | growth inhibition (GI) (UACC-62) | growth inhibition (GI) (UO-31) | growth inhibition (GI) (OVCAR-5) | growth inhibition (GI) (BT-549) | growth inhibition (GI) (LOX IMVI) | growth inhibition (GI) (HCC 2998) | growth inhibition (GI) (SF-268) | growth inhibition (GI) (SK-OV-3) | growth inhibition (GI) (NCI-H460) | growth inhibition (GI) (786-0) | growth inhibition (GI) (TK-10) | growth inhibition (GI) (K562) | growth inhibition (GI) (HL-60(TB)) | growth inhibition (GI) (OVCAR-3) | growth inhibition (GI) (OVCAR-8) | growth inhibition (GI) (MDA-MB-468) | growth inhibition (GI) (Hs-578T) | growth inhibition (GI) (M14) | growth inhibition (GI) (NCI-H23) | growth inhibition (GI) (U-251) | growth inhibition (GI) (T47D) | growth inhibition (GI) (SR) | growth inhibition (GI) (Malme-3M) | growth inhibition (GI) (MDA-MB-231) | growth inhibition (GI) (IGROV-1) | growth inhibition (GI) (MDA-MB-435) | growth inhibition (GI) (SK-MEL-28) | growth inhibition (GI) (NCI-H226) | growth inhibition (GI) (HCT-116) | growth inhibition (GI) (SF-295) | growth inhibition (GI) (UACC-257) | growth inhibition (GI) (SNB-19) | growth inhibition (GI) (A549) | growth inhibition (GI) (SNB-75) | growth inhibition (GI) (EKVX) | growth inhibition (GI) (SF-539) | growth inhibition (GI) (SN12C) | growth inhibition (GI) (ACHN) | growth inhibition (GI) (MOLT-4) | growth inhibition (GI) (SW-620)
12 mm: zone of inhibition at 100 µg/mL (Candida albicans [3])
25 µg/mL: MIC (Aspergillus fumigatus [4])
